Read-outs that look alike come from different tables or passages of the source.
Assays:
FimHL^F18 [1] = molecular target: T1, FimHL^F18 (Escherichia coli, UniProt P08191, N91S/S99N/V48A); test: Equilibrium titration of FimHL with GN-FP-4 (fluorescence); assay type: binding, E. coli strain F18; design: The isolated lectin domains (residues 1–159) of both FimH variants; made in house; host or cells: E. coli HM125 (periplasm), plasmid pfimHL^F18
Procedure: (§1) The concentration of GN-FP-4 was kept constant at 1.0 or 2.0 nM and the concentration of FimHL was varied between 0 and 10 nM. The samples were equilibrated overnight, and their fluorescence intensities at 520 nm were recorded for 30 s and averaged. The experimental data were fitted according to equation (2).

FimHL^K12 [2] = molecular target: T2, FimHL^K12 (Escherichia coli, UniProt P08191); test: as above; assay type: binding, E. coli strain K12; design: The isolated lectin domains (residues 1–159) of both FimH variants; made in house; host or cells: E. coli HM125 (periplasm)
T2 sequence (P08191 22-180): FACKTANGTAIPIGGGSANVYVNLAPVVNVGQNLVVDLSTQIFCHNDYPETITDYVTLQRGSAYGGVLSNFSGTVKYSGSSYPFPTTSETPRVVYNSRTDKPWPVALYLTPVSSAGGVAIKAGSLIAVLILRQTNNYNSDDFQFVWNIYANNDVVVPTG
Procedure: as §1

FimHL^K12 [3] = molecular target: T2, FimHL^K12
FimH^F18·DsG [4] = molecular target: T3, FimH^F18·DsG (Escherichia coli, UniProt P08191, N91S/S99N/V48A); settings: HM; for Kd: FimH^F18·DsG
T3 sequence (P08191 22-300 V48A/N91S/S99N, other chains not shown): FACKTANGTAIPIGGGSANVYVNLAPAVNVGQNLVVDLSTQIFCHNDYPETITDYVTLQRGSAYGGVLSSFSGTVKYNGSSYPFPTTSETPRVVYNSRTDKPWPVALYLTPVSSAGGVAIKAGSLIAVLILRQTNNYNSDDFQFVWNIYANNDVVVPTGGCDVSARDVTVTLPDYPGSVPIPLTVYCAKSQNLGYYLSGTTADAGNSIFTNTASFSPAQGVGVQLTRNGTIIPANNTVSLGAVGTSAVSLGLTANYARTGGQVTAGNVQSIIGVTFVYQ
Procedure: (§2) Measurements were performed with a stirred 1 × 0.4-cm quartz cuvette. […] The samples were equilibrated overnight, and their fluorescence intensities were recorded for 30 s and averaged.

FimH^K12·DsG [5] = molecular target: T4, FimH^K12·DsG (Escherichia coli, UniProt P08191); assay type: binding, E. coli strain K12; settings: HM, FimH^K12·DsG
T4 construct: those of the corresponding full-length FimH·DsG complexes; made in house; host or cells: E. coli HM125 (periplasm); DsG peptide synthetic, from JPT
T4 sequence (P08191 22-300, other chains not shown): as the sequence (P08191 22-300 V48A/N91S/S99N, other chains not shown) above, with A27V, S70N, N78S counted along it
Procedure: as §2

FimH^K12·DsG [6] = assay type: binding, E. coli strain K12; settings: HM, FimH variant K12
Procedure: as §2

FimHL^F18 [7] = molecular target: T1, FimHL^F18; settings: HM
FimH^F18·DsG [8] = molecular target: T3, FimH^F18·DsG; settings: for Kd: HM, FimH^F18·DsG
[9] = test system: FimH^F18-Ala188Asp-piliated E. coli; test: Cell tracking on mannose-BSA-coated surfaces, static conditions; assay type: cell-based; settings: in the presence of 200 μM HM; FimH^F18-Ala188Asp-piliated bacteria
Source text: (§3) The E. coli KB18 strain[67] was kindly provided by Professor Evgeni Sokurenko and served as host for the generation of recombinant strains. KB18 contains the pPKL114 plasmid, which encodes the whole fim operon with a translational stop linker upstream of the fimH gene. KB18 was co-transformed with the pGB2-24 plasmid, which was isolated from the ELT115 strain and encodes fimH^J96 (kindly provided by Professor Evgeni Sokurenko). Single-nucleotide point mutations were introduced in fimH^J96 using overlap extension PCR following standard molecular techniques to obtain fimH^F18 and fimH^F18-Ala188Asp. The PCR products were cloned into pGB2-24 by the ApaLI and SphI sites, and KB18 was transformed with the resulting plasmid. […]
(§4) Cell tracking was carried out at room temperature under static conditions. […] Time-lapse movies were recorded with a × 20 phase contrast objective using a CMOS digital camera (The Imaging Source Europe, Bremen, Germany) mounted on a Nikon Ti Eclipse inverted microscope and using the NIS Elements Basic Research software (Nikon, Zurich, Switzerland). […] Five to seven independent movies were recorded for each experimental set-up: FimH^F18 or FimH^F18-Ala188Asp on 1M-BSA-coated dishes and FimH^F18 and FimH^F18-Ala188Asp on BSA-coated cell culture dishes. […]

[10] = test system: FimH^F18-piliated E. coli; test: as above; assay type: cell-based; settings: in the presence of 200 μM HM; FimH^F18-piliated bacteria
Source text: as §3, §4

FimHL^K12 [11] = molecular target: T2, FimHL^K12; settings: HM
FimH^K12·DsG [12] = molecular target: T4, FimH^K12·DsG; assay type: binding, E. coli strain K12; settings: for Kd: HM, FimH^K12·DsG
Procedure: A constant FimH·DsG concentration of 1 or 2 μM was used. […] The fluorescence traces were globally fitted with Dynafit[59] according to a second-order binding and first-order dissociation reaction.

[13] = test system: E. coli piliated with FimH^F18 or FimH^F18-Ala188Asp; test: Cell tracking on mannose-BSA-coated surfaces, static conditions (strain not separated); assay type: cell-based
Source text: The E. coli KB18 strain[67] was kindly provided by Professor Evgeni Sokurenko and served as host for the generation of recombinant strains. KB18 contains the pPKL114 plasmid, which encodes the whole fim operon with a translational stop linker upstream of the fimH gene. KB18 was co-transformed with the pGB2-24 plasmid, which was isolated from the ELT115 strain and encodes fimH^J96 (kindly provided by Professor Evgeni Sokurenko). Single-nucleotide point mutations were introduced in fimH^J96 using overlap extension PCR following standard molecular techniques to obtain fimH^F18 and fimH^F18-Ala188Asp. The PCR products were cloned into pGB2-24 by the ApaLI and SphI sites, and KB18 was transformed with the resulting plasmid.
E. coli strains were grown from frozen stocks in LB medium supplemented with antibiotics (100 μg ml^−1 ampicillin and 25 μg ml^−1 chloramphenicol) until late log phase (OD600 of 1.0–1.2) and diluted to an OD600 of 0.01 before movie acquisition.
Cell culture dishes (35 mm, Corning Inc., Corning, NY) were incubated with 50 μl of 50 μg ml^−1 1M-BSA in 0.02 M bicarbonate buffer for 75 min at 37 °C. The dishes were then washed three times and quenched with 0.1% PBS–BSA to remove unbound 1M-BSA and block remaining sites on the plastic surface to prevent nonspecific binding of bacteria. Controls were prepared by treating cell culture dishes with 0.1% PBS–BSA only. The bacterial suspension was added to the cell culture dishes for microscopy studies.
Cell tracking was carried out at room temperature under static conditions. A bacterial suspension of 50 μl in the late logarithmic growth phase was placed onto the cell culture dishes (diluted to OD600 of 0.01), and a cover slide was placed on top. The delay between sample placement and start of the movie acquisition was about 1 min. Time-lapse movies were recorded with a × 20 phase contrast objective using a CMOS digital camera (The Imaging Source Europe, Bremen, Germany) mounted on a Nikon Ti Eclipse inverted microscope and using the NIS Elements Basic Research software (Nikon, Zurich, Switzerland). Phase contrast images in an ∼5-μm-thick surface layer were taken at four to five frames per second over 5 min. The dead time of movie acquisition was ∼1 min. The resulting images were segmented by creating a projection of the average intensities over all frames to remove the background and by subsequent thresholding using the Maximum Entropy method in Fiji[68] to obtain binary images (examples shown in Supplementary Movies 1 and 2). […] Five to seven independent movies were recorded for each experimental set-up: FimH^F18 or FimH^F18-Ala188Asp on 1M-BSA-coated dishes and FimH^F18 and FimH^F18-Ala188Asp on BSA-coated cell culture dishes. […]

FimHL^F18 [14] = molecular target: T1, FimHL^F18

T1 sequence (P08191 22-180 V48A/N91S/S99N): as the sequence (P08191 22-180) above, with V27A, N70S, S78N counted along it

O=C(NCCNC(=S)Nc1ccc2c(c1)C(=O)OC21c2ccc(O)cc2Oc2cc(O)ccc21)c1ccc(-c2ccc(O[C@H]3O[C@H](CO)[C@@H](O)[C@H](O)[C@@H]3O)c(Cl)c2)cc1 [GN-FP-4, 3′-Chloro-N-(2-(3-(3′,6′-dihydroxy-3-oxo-3H-spiro[isobenzofuran-1,9′-xanthen]-5-yl)-thioureido)ethyl)-4′-(α-D-mannopyranosyloxy)-biphenyl-4-carboxamide]
Kd (FimHL^F18 [1]): 0.00018 µM
Kd (FimHL^K12 [2]; FimHL^K12, equilibrium fluorescence titration, read-out: Kd): 0.07 nM
Kd (FimHL^K12 [2]; FimHL^K12, pH 7.4, 25 °C, read-out: Kd of GN-FP-4 binding): 0.07 nM
fold higher affinity compared to HM (FimHL^K12 [2]; FimHL^K12 and FimHL^F18): 16 fold

CCCCCCCO[C@H]1O[C@H](CO)[C@@H](O)[C@H](O)[C@@H]1O [HM, n-heptyl α-D-mannoside]
kon (M^−1 s^−1) (FimHL^K12 [3]; HM binding to FimHL^K12, pH 7.4, 25 °C, calculated with koff and Kd): 1.8±0.6 × 10^5(d) M^−1 s^−1
koff (s^−1) (FimHL^K12 [3]; HM dissociation from FimHL^K12, pH 7.4, 25 °C): 2.0±0.4 × 10^−4 s^−1
Kd (FimH·DsG)/Kd (FimHL) (FimH^F18·DsG [4]; FimH variant F18): 3,300
Kd (FimH^F18·DsG [4]; read-out: Kd (equilibrium titration; M), pH 7.4, 25 °C): 9.9 µM
Kd (FimH^F18·DsG [4]; read-out: equilibrium dissociation constant (Kd), equilibrium titration): 9.9 µM
Kd (FimH^K12·DsG [5]; equilibrium titration, read-out: equilibrium dissociation constant (Kd)): 3.6 µM
Kd (FimH^K12·DsG [5]; pH 7.4, 25 °C, read-out: Kd (equilibrium titration; M)): 3.6 µM
Kd (FimH·DsG)/Kd (FimHL) (FimH^K12·DsG [6]): 3,300
Kd (FimHL^F18 [7]; FimHL^F18, displacement of GN-FP-4): 0.003 µM
Kd (FimHL^F18 [7]; read-out: Kd (equilibrium titration; M), FimHL^F18, pH 7.4, 25 °C, from competition equilibria with GN-FP-4): 0.003 µM
kon (M^−1 s^−1) (FimH^F18·DsG [8]; HM binding to FimH^F18·DsG, pH 7.4, 25 °C): 4.9±0.1 × 10^6 M^−1 s^−1
koff (s^−1) (FimH^F18·DsG [8]; HM dissociation from FimH^F18·DsG, pH 7.4, 25 °C): 5.8±0.1 × 10^1 s^−1
Kd (FimH^F18·DsG [8]; read-out: Kd (amplitude analysis; M), pH 7.4, 25 °C, stopped-flow amplitudes): 12 µM
Kd (FimH^F18·DsG [8]; read-out: Kd (amplitudes of stopped-flow reactions), amplitude analysis): 12 ± 1 µM
Kd (FimH^F18·DsG [8]; read-out: koff/kon, pH 7.4, 25 °C, ratio of rate constants): 12 µM
mean velocity on 1M-BSA [9]: 5.9 μm s^−1
mean velocity on 1M-BSA [10]: 6.5 μm s^−1
Kd (FimHL^K12 [11]; FimHL^K12, displacement of GN-FP-4): 0.0011 µM
Kd (FimHL^K12 [11]; read-out: Kd (equilibrium titration; M), FimHL^K12, pH 7.4, 25 °C, from competition equilibria with GN-FP-4): 0.0011 µM
kon (M^−1 s^−1) (FimH^K12·DsG [12]; HM binding to FimH^K12·DsG, pH 7.4, 25 °C): 5.0±0.1 × 10^6 M^−1 s^−1
koff (s^−1) (FimH^K12·DsG [12]; HM dissociation from FimH^K12·DsG, pH 7.4, 25 °C): 2.2±0.1 × 10^1 s^−1
Kd (FimH^K12·DsG [12]; pH 7.4, 25 °C, ratio of rate constants, read-out: koff/kon): 4.3 µM
Kd (FimH^K12·DsG [12]; pH 7.4, 25 °C, stopped-flow amplitudes, read-out: Kd (amplitude analysis; M)): 4.2 µM
Kd (FimH^K12·DsG [12]; read-out: Kd (amplitudes of stopped-flow reactions)): 4.2 ± 0.3 µM
reduction of permanent attachment to 1M-BSA ([13]; in the presence of 200 μM HM): 85%
reduction of transient attachment to 1M-BSA ([13]; in the presence of 200 μM HM): 75%
transient and permanent attachment to 1M-BSA ([13]; in the presence of HM): significantly reduced
bacterial velocity on 1M-BSA ([13]; upon addition of 100 µM HM): increased
kon (M^−1 s^−1) (FimHL^F18 [14]; HM binding to FimHL^F18, pH 7.4, 25 °C, calculated with koff and Kd): 1.2±0.4 × 10^5(d) M^−1 s^−1
koff (s^−1) (FimHL^F18 [14]; HM dissociation from FimHL^F18, pH 7.4, 25 °C): 3.5±0.8 × 10^−4 s^−1
